System: NIH-3T3 tranfectant overexpressing mutant K-ras 4B
Assay: Prenylation of K-ras 4B in intact cells (anti-Pan-ras immunoblot, densitometric scanning)
Type: cell-based
Settings: 72 hours at 37° C.; 0, 1.0, 5.0, 10.0 and 25 μm FTase inhibitor in the presence versus absence of 5,M of hydrolysed lovastatin
Protocol: The effectiveness of the FTase inhibitor 6-[(4-chloro-phenyl)-hydroxy-(3-methyl-3H-imidazol4-yl)-methyl]-4-(3-ethynyl-phenyl)-1-methyl-1H-quinolin-2-one on prenylation of K-ras 4B in intact cells is enhanced by a minimally effective dose of lovastatin. Semi-confluent monolayers of the NIH-3T3 tranfectant overexpressing mutant K-ras 4B are treated for 72 hours at 37° C. with increasing concentrations (0, 1.0 μm, 5.0 μm 10.0 μm and 25 μm) of 6-[(4-chloro-phenyl)-hydroxy-(3-methyl-3H-imidazol4-yl)-methyl]4-(3-ethynyl-phenyl)-1-methyl-1H-quinolin-2-one in the presence and absence of 5,M of hydrolysed lovastatin. […] The blots are incubated with peroxidase-conjugated secondary antibody, and the immunoblotted Ras protein are detected by enhanced chemiluminescence (Amersham Life Products, Arlington Heights, Ill.). Percent of prenylated Ras is determined by densitometric scanning using MasterScan 3.0 (Scanalytics, Billerica, Mass.). […]

With `C#Cc1cccc(-c2cc(=O)n(C)c3ccc(C(O)(c4ccc(Cl)cc4)c4cncn4C)cc23)c1` (stereo not shown) [6-[(4-chloro-phenyl)-hydroxy-(3-methyl-3H-imidazol4-yl)-methyl]-4-(3-ethynyl-phenyl)-1-methyl-1H-quinolin-2-one] the “effectiveness on the inhibition of prenylation of K-ras 4B in intact cells (percent of prenylated Ras)” value was “enhanced”.
